Key:
Live Jurkat cells [1] = test: DNA staining of live cells and DNA content cell cycle analysis using flow cytometry (Example 36); type: cell-based, human; details: for G2/G1 ratio: 30 min
Method: Live Jurkat cells are suspended at 5×10^5 cells/ml in each RPMI media with 10% Fetal Bovine Serum (FBS) and Hanks Balanced Salt Solution (HBSS). A compound (e.g., Compound 9 or a salt thereof) is added to each of one mL cell suspensions at concentrations 1 μM, 5 μM, 10 μM, and 20 μM, and then incubated at 37° C. or room temperature for 30 minutes while protected from light. Cells are run through a Becton Dickinson (BD) LSRII Flow Cytometer. Forward Scatter (FS) versus Side Scatter (SS) dual parameter plot is used to gate main cell population. Fluorescence is collected using three lasers: 488 nm excitation laser with 670/14, 720/20 and 787/42 bandpass emission filter, 532 nm excitation laser with 585/42 and 780/60 bandpass emission filters, and 633 nm excitation laser with 695/40, and 787/42 bandpass emission filters. Collection of at least 10,000 events at flow rate of ˜200 events/second. The data is further analyzed using MODFIT LT Flow Cytometry Modeling Software from Verity Software House, Inc. to evaluate the ratio of G2/G1 and the % CV of G1 phase.
DNA content analysis in living cells is expected to produce variable results. Depending on the cell type, the % CV of the mean DNA content of a uniform cell population may vary from between 5%-10%. Although there is no formal consensus regarding the acceptable maximal CV value for the mean DNA content of the G0G1 phase, the % CV of normal diploid cells in a histogram generally is <8%. The CV of a tumor may be higher due to the presence of multiple tumor subpopulations. However, tumor CVs of <8% are recommended for useful S-Phase determinations (Cytometry, Vol. 14 (5), 1993, page 474).
Linearity is the observed ratio between the DNA Diploid G2M and G0G1 positions. The ratio normally is about two, but this ratio may deviate from the ideal value even under normal conditions (see, MODFIT LT User Guide, June 2000).

Live Jurkat cells [2] = test: DNA staining of live cells, 15 minute incubation, MODFIT analysis (Example 47); type: cell-based, human; details: 1.25, 2.5, 5, 10 μM, 37° C. and room temperature, 15 min
Method: Live Jurkat cells are suspended at 5×10^5 cells/ml in RPMI media Compound 9 is added to each of one mL cell suspensions at final concentrations 1.25 μM, 2.5 μM, 5 μM, and 10 μM and then incubated at 37° C. and room temperature for 15 minutes while protected from light. Cells are run through the Becton Dickinson (BD) LSRII Flow Cytometer. Forward Scatter (FS) versus Side Scatter (SS) dual parameter plot is used to gate main cell population. Fluorescence is collected using two lasers: the 488 nm excitation laser with 695/40 bandpass emission filter, and using the 633 nm excitation laser with 695/40 bandpass emission filters, collecting 10,000 events at flow rate of ˜200 events/second. The data is further analyzed using MODFIT LT Flow Cytometry Modeling Software from Verity Software House, Inc. to look at ratio of G2/G1 and the % CV of G1 phase.

[3] = tested on: U-2 OS cells (ATCC HTB-96); test: Imaging of cells stained with near-IR DNA stain (Example 48); type: cell-based; details: 20 μM, live, fixed or simultaneously fixed cells
Method: Live U-2 OS cells (ATCC HTB-96) were treated with Compound 9 under various conditions and imaged with a 10×/0.3 objective on an ArrayScan VTI automated microscope platform (ThermoFisher/Cellomics). […] Such staining patterns have been routinely utilized in auto-focus and cell identification in automated microscopy. Cells were fixed with 3.7% formaldehyde (diluted from Sigma F1635) in the presence of 20 μM Compound 9 for 30 minutes at room temperature. The fixed cells were imaged and show similar prominent nuclear and dim cytosolic labeling (FIG. 4).

Live Jurkat cells [4] = test: DNA staining of live cells (diluted samples), cell cycle analysis by flow cytometry (Example 38); type: cell-based, human
Method: Aliquots of a compound of the invention (e.g., Compound 9 or a salt thereof) are diluted to a concentration of 5 mM in de-ionized water (DI) or in DMSO. Live Jurkat cells are suspended at 5×10^5 cells/ml in each RPMI media with 10% FBS. Compound from each solution (DI and DMSO) is added to each of one mL cell suspensions at a concentration 5 μM and then incubated at 37° C. for 30 minutes while protected from light. Cells are run through a Becton Dickinson (BD) LSRII Flow Cytometer. Forward Scatter (FS) versus Side Scatter (SS) dual parameter plot is used to gate main cell population. Fluorescence is collected using two lasers: the 488 nm excitation laser with 695/40, and 780/60 bandpass emission filter, and using the 633 nm excitation laser with 780/60, 710/50, and 660/20 bandpass emission filters. Fluorescence is also collected with the 488 nm laser and the 530/30 and 575/26 bandpass emission filters to observe for any fluorescence spillover in these detectors. Collection of at least 10,000 events is performed at a flow rate of ˜200 events/second. The data is analyzed to evaluate the ratio of G2/G1 and the % CV of G1 phase, as described herein. Compound 9 was evaluated using the described procedures and was effective as a DNA stain for use in DNA cell cycle analysis. The compound was excited by both lasers with emission in the far red and near-IR regions of the spectrum. […] Table 2 summarizes data for live Jurkat cells suspended in RPMI media+10% FBS treated with 5 μM Compound 9 (as a 5 mM DMSO or DI solution).

CN(C)CCNC(=O)CNc1ccc(O)c2c1C(=O)c1c(O)ccc(N)c1C2=O [Compound 9]
G2/G1 ratio (Live Jurkat cells [1]; 1 μM, RPMI media, 37° C.): 1.91 | G2/G1 ratio (Live Jurkat cells [1]; 5 μM, RPMI media, 37° C.): 1.83 | G2/G1 ratio (Live Jurkat cells [1]; 10 μM, HBSS buffer, 37° C.): 1.84 | G2/G1 ratio (Live Jurkat cells [1]; 10 μM, HBSS buffer, room temperature): 1.83 | G2/G1 ratio (Live Jurkat cells [1]; 10 μM, RPMI media, 37° C.): 1.82 | G2/G1 ratio (Live Jurkat cells [1]; 10 μM, RPMI media, room temperature): 1.82 | G2/G1 ratio (Live Jurkat cells [1]; 20 μM, RPMI media, 37° C.): 1.87 | % CV of G1-phase (Live Jurkat cells [1]; all concentrations (1-20 μM), media and HBSS, 37° C. and room temperature, MODFIT): < 8% | G2/G1 ratios (linearity) (Live Jurkat cells [1]; all concentrations, MODFIT analysis): indicating linearity of staining | DNA staining of live cells (Live Jurkat cells [1]; excited by 488, 532 and 633 nm lasers): effective stain for DNA | % CV of G1-phase (Live Jurkat cells [2]): < 8% | staining pattern [3]: prominent nuclear and relatively dim cytsolic staining | G2/G1 ratio (Live Jurkat cells [4]; 5 μM from 5 mM DI solution, 488 + 695/40): 1.89 | G2/G1 ratio (Live Jurkat cells [4]; 5 μM from 5 mM DI solution, 633 + 710/50): 1.85 | G2/G1 ratio (Live Jurkat cells [4]; 5 μM from 5 mM DMSO solution, 488 + 695/40): 1.88 | G2/G1 ratio (Live Jurkat cells [4]; 5 μM from 5 mM DMSO solution, 633 + 710/50): 1.85 | % CV of G1-phase (Live Jurkat cells [4]; 5 μM, all samples and conditions, MODFIT): < 8%

From patent US9709557B2, “Anthraquinone based near IR emitting compounds and uses thereof” (LIFE TECHNOLOGIES CORPORATION, priority 2008, dated 2017)
